Measured values reported in paper PMC3562233 (PLoS ONE, 2013).
Where “and” joins values, the source holds several entries; their conditions need not be identical. Equal entries are not always repeated. Entries after “also recorded” stand apart in the source; their conditions may differ. Structures can show the parent of a compound that is named as a salt. Where two headings read alike, the source gives them in different places.

Assays:
[1] = target: T1, WT M2 (Influenza A virus, UniProt P0DOF5); assay: cell-based; settings: for inhibition at 100 µM: read-out: % inhibition at 100 µM in TEVC WT
Target sequence in this assay (P0DOF5 whole entry, looked up): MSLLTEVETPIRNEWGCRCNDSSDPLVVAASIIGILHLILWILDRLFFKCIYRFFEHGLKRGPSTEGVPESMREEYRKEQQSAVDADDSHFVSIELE

[2] = in vitro; settings: dog
Experimental: Cytotoxicity towards MDCK cells was assayed after 48 h drug exposure with the MTT tetrazolium dye assay as described [55].

[3] = target: T1, WT M2; assay: cell-based; design: expressed in transfected cells; host or cells: Saccharomyces cerevisiae, multicopy plasmid, GAL1 promoter; settings: for growth of the strain expressing WT M2: 27% of control without amantadine, 48 h; for EC50: yeast expressing WT M2, growth measured after 40 h
Target sequence in this assay (P0DOF5 whole entry): as the sequence (P0DOF5 whole entry, looked up) above

[4] = test system: influenza A/Udorn/72 WT virus; assay type: cell-based
[5] = target: mammalian Na+/H+ exchanger; design: method as in PMID 3016497; settings: read-out: apparent Ki; cited from earlier work
[6] = test system: M2 channel; design: method as in PMID 20570509; settings: weaker than amantadine; cited from earlier work
[7] = read-out: EC50, yeast growth restoration

Row | Compound | inhibition at 100 µM [1] [%] | EC50 [3, 7] | other results
1 | 3-(2-methylbut-3-yn-2-yl)-6-(methylthio)-1,2,3,4-tetrahydro-1,3,5-triazine hydroiodide [Compound 27] |  |  | % inhibition at 100 µM in TEVC WT [1]: 17.0 ± 1.9
2 | NC12CC3CC(CC(C3)C1)C2 [Amantadine, reference compound] | 92 |  | CC50 [2]: ~100000 nM; growth of the strain expressing WT M2 ([3]; 0.3 µM amantadine): 65 % of control; growth of the strain expressing WT M2 ([3]; 1 µM amantadine): 95 % of control; growth increase ([3]; 1 µM, 384-well plate assay, yeast expressing WT M2): 3 fold; growth of the strain expressing WT M2 ([3]; 3 µM amantadine): 95 % of control
3 | O=C1NC(=S)NC(=O)C1=CNC12CC3CC(CC(C3)C1)C2 [Compound 1, 5-[(1-adamantylamino)methylene]-2-thioxodihydro-4,6(1H,5H)-pyrimidinedione] |  | 2500 nM | 
4 | CC(=O)Nc1ccc(S(=O)(=O)NC23CC4CC(CC(C4)C2)C3)cc1 [Compound 2, N1-(4-[(1-adamantylamino)sulfonyl]phenyl)acetamide] |  | 5000 nM | 
5 | c1cc2c(cc1NC1C3CC4CC(C3)CC1C4)OCO2 (centres unmarked) [Compound 3, 2-adamantyl (1,3-benzodioxol-5-yl)amine] |  | 20000 nM | 
6 | O=[N+]([O-])c1ccc(CNC23CC4CC(CC(C4)C2)C3)cc1 [Compound 4, 1-adamantyl (4-nitrobenzyl)amine] | 43.5 | 5000 nM | 
7 | O=[N+]([O-])c1ccccc1CNC1C2CC3CC(C2)CC1C3 (centres unmarked) [Compound 5, 2-adamantyl (2-nitrobenzyl)amine] |  | 5000 nM | 
8 | CC(NC(=S)NC(=O)C=Cc1ccco1)C12CC3CC(CC(C3)C1)C2 (centres unmarked) [Compound 6, N-(([1-(1-adamantyl)ethyl]amino)carbonothioyl)-3-(2-furyl)acrylamide] |  |  | inhibition of plaque formation [4]: almost completely inhibited; CC50 [2]: > 30000 nM; EC50 ([3]; EC50, yeast growth restoration): 200 nM and < 1000 nM
9 | CS/C(=N/C#N)NC12CC3CC(CC(C3)C1)C2 [Compound 7, (E)-methyl N-((3s,5s,7s)-adamantan-1-yl)-N'-cyanocarbamimidothioate] |  | 12000 nM | 
10 | CNCC(=O)C12CC3CCC(CC(C3)C1)C2 [Compound 8, 2-(methylamino)-1-tricyclo[4.3.1.1~3,8~] undec-1-ylethanone hydrochloride] |  | 3000 nM | 
11 | CCc1noc(C)c1C(=O)NCC12CC3CC(CC(C3)C1)C2 [Compound 9, N-(adamantan-1-ylmethyl)-3-ethyl-5-methyl-1,2-oxazole-4-carboxamide] |  | 800 nM and < 1000 nM | 
12 | Cc1ncc(C23CC4CC(CC(C4)C2)C3)[nH]1 [Compound 10, 5-(adamantan-1-yl) -2-methyl-1H-imidazole] |  |  | inhibition of plaque formation [4]: almost completely inhibited; CC50 [2]: > 100000 nM; EC50 ([3]; EC50, yeast growth restoration): < 1000 nM and 300 nM
13 | Cc1cc(C(=O)NC2C3CC4CC(C3)CC2C4)no1 (centres unmarked) [Compound 11, N-(adamantan-2-yl)-5-methyl-1,2-oxazole-3-carboxamide] |  | 1500 nM | 
14 | C1CNC(NCC23CC4CC(CC(C4)C2)C3)=N1 [Compound 12, N-(adamantan-1-ylmethyl)-4,5-dihydro-1H-imidazol-2-amine hydroiodide] |  | 400 nM and < 1000 nM | 
15 | OCC1CCCN1CC12CC3CC(CC(C3)C1)C2 (centres unmarked) [Compound 13, [1-(adamantan-1-ylmethyl)pyrrolidin-2-yl] methanol hydrochloride] |  | 15000 nM | 
16 | NC(N)=NC(=O)c1nc(Cl)c(N2CCCCCC2)nc1N [Compound 14, Hexamethylene amiloride] | 89.9 |  | Ki [5]: 200 nM; CC50 [2]: 16000 nM; EC50 ([3]; EC50, yeast growth restoration): 1100 nM and 1000 nM
17 | C=C1C(N)CC2CC1C2(C)C (stereo not drawn) [Compound 15, 3-amino-beta-pinene] |  | 500 nM and < 1000 nM | 

Row | Compound | inhibition at 100 µM [1] [%] | EC50 [3, 7] | other results
18 | CSC1=NCN(Cc2ccccc2)CN1 [Compound 18, 3-benzyl-6-(methylthio)-1,2,3,4-tetrahydro-1,3,5-triazine hydroiodide] | 4.5 | 12000 nM | 
19 | Cn1cccc1CNC1CCCCCCC1 [Compound 19, N-[(1-methyl-1H-pyrrol-2-yl)methyl] cyclooctanamine] |  | 30000 nM | 
20 | CN(C)c1nc(N)c(C(=O)NC(=N)N)nc1Cl [Compound 20, 5-(N,N-Dimethyl)amiloride hydrochloride] | 23.3 ± 1.9 |  | % inhibition at 100 µM in TEVC WT [1]: moderate inhibition
21 | CCN(c1nc(N)c(C(=O)NC(=N)N)nc1Cl)C(C)C [Compound 21, 5-(N-Ethyl-N-isopropyl)amiloride] | 47.3 ± 0.5 |  | % inhibition at 100 µM in TEVC WT [1]: moderate inhibition
22 | CSC1=NCN(Cc2cccs2)CN1 [Compound 23, 6-(methylthio)-3-(thiophen-2-ylmethyl)-1,2,3,4-tetrahydro-1,3,5-triazine] | 8.1 ± 1.7 |  | 
23 | CCSC1=NCN(Cc2ccco2)CN1 [Compound 24, 6-(ethylthio)-3-(furan-2-ylmethyl)-1,2,3,4-tetrahydro-1,3,5-triazine] | 17.9 ± 2.8 |  | 
24 | Br.CSC1=NCN(C(C)(C)C)CN1 [Compound 25, 3-(tert-butyl)-6-(methylthio)-1,2,3,4-tetrahydro-1,3,5-triazine hydrobromide] |  |  | % inhibition at 100 µM in TEVC WT [1]: 13.3 ± 1.5
25 | Br.CSC1=NCN(CCCO)CN1 [Compound 26, 3-(4-(methylthio)-5,6-dihydro-1,3,5-triazin-1(2H)-yl)propan-1-ol hydrobromide] |  |  | % inhibition at 100 µM in TEVC WT [1]: 5.5 ± 0.9
26 | CCSC1=NCN(Cc2ccccc2)CN1 [Compound 28, 3-benzyl-6-(ethylthio)-1,2,3,4-tetrahydro-1,3,5-triazine] | 5.4 ± 1.6 |  | 
27 | CCSC1=NCN(Cc2cccs2)CN1 [Compound 29, 6-(ethylthio)-3-(thiophen-2-ylmethyl)-1,2,3,4-tetrahydro-1,3,5-triazine] | 6.7 ± 1.4 |  | 
28 | CCSC1=NCN(CCc2cccs2)CN1 [Compound 30, 6-(ethylthio)-3-(2-(thiophen-2-yl)ethyl)-1,2,3,4-tetrahydro-1,3,5-triazine] | 1.1 ± 1.1 |  | 
29 | CCSC1=NCN(CC(C)C)CN1 [Compound 31, 6-(ethylthio)-3-isobutyl-1,2,3,4-tetrahydro-1,3,5-triazine] | 1.2 ± 0.6 |  | 
30 | CCSC1=NCN(CC(C)(C)C)CN1 [Compound 32, 6-(ethylthio)-3-neopentyl-1,2,3,4-tetrahydro-1,3,5-triazine] |  |  | % inhibition at 100 µM in TEVC WT [1]: 4.7 ± 1.3
31 | CCSC1=NCN(CC2CCCCC2)CN1 [Compound 33, 3-(cyclohexylmethyl)-6-(ethylthio)-1,2,3,4-tetrahydro-1,3,5-triazine] | 63.9 ± 2 | 700 nM | 
32 | CCSC1=NCN(C2CCCCCCC2)CN1 [Compound 34, 3-cyclooctyl-6-(ethylthio)-1,2,3,4-tetrahydro-1,3,5-triazine] | 89.7 |  | inhibition of plaque formation [4]: completely inhibited; also recorded: moderate inhibition; CC50 [2]: 75000 nM; EC50 ([3]; EC50, yeast growth restoration): 300 nM
33 | NC1CCCCCCC1 [Cyclooctylamine] |  |  | binding affinity relative to amantadine [6]: 6 fold
